Measured values as given in paper PMC2714839, “Evidence for a role of NTS2 receptors in the modulation of tonic pain sensitivity” (Molecular Pain, 2009).
Where “and” joins values, the source holds several entries; their conditions need not be identical. Equal entries are not always repeated. Where two headings read alike, the source gives them in different places. Non-standard residues stand in square brackets, D forms with d. Residues, ends and D or L forms follow the SMILES beside them. Ala(indol-4-yl) = N[C@@H](Cc1cccc2[nH]ccc12)C(=O)O; NMeR = CN[C@@H](CCCNC(=N)N)C(=O)O; Tle = CC(C)(C)[C@H](N)C(=O)O

How the values were obtained:
[1] = system: formalin-induced nociceptive behaviors; assay: Formalin test, cumulative time in stereotypic behaviors (lifting; flinching/licking/biting); assay type: in vivo; conditions: rat
Experimental: Experiments were performed with adult male Sprague-Dawley rats (250–300 g; Charles River, St-Constant, QC, Canada) kept on a 12 h light/dark cycle and allowed ad libitum access to food and water. Animals were individually acclimatized to Plexiglas enclosures for 3 consecutive days prior to testing. The formalin test was always performed by […] in a quiet room and between 08.00 AM and 12.00 PM to reduce any variation related to circadian rhythm. The experimental procedures in this study were approved by the Animal Care Committee of the University of Sherbrooke and were in accordance with policies and directives of the Canadian Council on Animal Care.
Behavioral experiments aimed at establishing the effects of NT analogs and NTS2-selective agonists on formalin-induced nocifensive behaviors. To this end, rats were lightly anesthetized with isoflurane (Abbott Laboratories, Montreal, QC, Canada) and injected intrathecally, at the L5-L6 intervertebral space, with either NT (6 μg/kg), NT69L (5 μg/kg), JMV-431 (5 to 60 μg/kg), or levocabastine (0.5 and 5 μg/kg) diluted in 30 μl of physiological saline (0.9% NaCl), 5 min before formalin administration. Control animals received physiological saline.
Antinociception was assessed using the formalin test as a model of persistent pain. […]
Following this, the rats were placed in clear plastic chambers (30 × 30 × 30 cm) positioned over a mirror angled at 45°, in order to allow an unobstructed view of the paws, and their behaviors were recorded for the next 60 min. […] Nocifensive behaviors were assessed using a weighed score as described previously. […] The weighted nociceptive score, ranging from 0 to 3, is calculated by multiplying the time spent in each category by its assigned weight category, summing these products and dividing by the total time for each 3 min block of time. The total area under the curve (A.U.C.) for the inflammatory phase (phase 2) was calculated between 21 to 60 min for each animal. Phase 2 was further subdivided in early (21–39 min) and late (40–60) phases and analyzed as separate events. Formalin-induced pain related behavior may also be quantified by monitoring the number and the duration of episodes of different behavioral endpoints. The cumulative time spent in both lifting (state 2) and flinching/licking/biting (state 3), reflecting behavioral reactions integrated at different CNS levels, were also determined during the inflammatory phase (21 to 60 min following formalin).
Data are presented as means ± standard errors of the mean (S.E.M.). […] Nociceptive scores over the 3 min time blocks were analyzed using a two-way analysis of variance for repeated measures, with comparisons between experimental groups and the control group at each time interval using Bonferroni's post hoc t-test. […]

rNTS2 = molecular target: T1, rNTS2 (Rattus norvegicus, UniProt Q63384); assay: Competition binding of [3H]-NT to HEK293 cell membranes expressing rNTS2
T1 construct: expressed in transfected cells; membrane homogenates
T1 sequence (Q63384 1-416): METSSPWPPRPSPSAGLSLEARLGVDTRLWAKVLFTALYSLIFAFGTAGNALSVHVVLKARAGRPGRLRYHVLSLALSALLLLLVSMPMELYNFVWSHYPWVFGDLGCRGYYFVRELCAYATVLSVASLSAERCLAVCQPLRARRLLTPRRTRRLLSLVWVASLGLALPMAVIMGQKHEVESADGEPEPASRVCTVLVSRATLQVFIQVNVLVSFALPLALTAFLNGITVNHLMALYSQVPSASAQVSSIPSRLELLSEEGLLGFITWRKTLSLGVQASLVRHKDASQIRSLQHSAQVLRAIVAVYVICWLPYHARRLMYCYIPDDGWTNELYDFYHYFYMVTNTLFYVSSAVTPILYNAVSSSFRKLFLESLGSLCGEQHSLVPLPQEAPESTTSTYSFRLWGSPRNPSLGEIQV
Experimental: (§1) Cells were fed every 2 days with 20 ml of medium. 70–80% confluent HEK 293 cells were washed twice with phosphate-buffered saline solution, scraped into 50 mM Tris-HCl (pH 7.4) buffer containing 1 mM EDTA and 250 mM sucrose and centrifuged at 15,000 g for 12 min at 4°C. Pellets were then re-suspended in hypotonic TE buffer (50 mM Tris-HCl (pH 7.4) buffer containing 1 mM EDTA) and membrane homogenates were recovered by centrifugation for 30 min at 4°C. The final protein concentration was determined with the use of the BCA assay kit (Pierce Biotechnology Inc, Rockford, IL).
(§2) Binding was terminated by two successive additions of 3 ml of ice-cold buffer and filtering under vacuum through GF/B filters presoaked in binding buffer containing 0.2% polyethyleneimine (48-well Brandel Harvester). Filters were placed in scintillation vials containing 5 ml scintillation liquid (Ecolite) and then counted in a beta counter.

[2] = system: formalin-induced nociceptive behaviors; assay: Formalin test, weighted pain score (A.U.C.) after intrathecal pretreatment; assay type: in vivo; conditions: rat, i.t. 5 μg/kg; for reduction of pain behaviors in the tonic phase (phase 2, 21-60 min, A.U.C.) vs vehicle: 5 min before formalin
Experimental: Experiments were performed with adult male Sprague-Dawley rats (250–300 g; Charles River, St-Constant, QC, Canada) kept on a 12 h light/dark cycle and allowed ad libitum access to food and water. Animals were individually acclimatized to Plexiglas enclosures for 3 consecutive days prior to testing. The formalin test was always performed by three different experimenters in a quiet room and between 08.00 AM and 12.00 PM to reduce any variation related to circadian rhythm.
Antinociception was assessed using the formalin test as a model of persistent pain. For this purpose, rats were placed for a 60-min habituation period in the experimentation room. Thereafter, rats received a 50 μl subcutaneous injection of diluted 2% formaldehyde (i.e. 5% formalin, Fisher Scientific, Montreal, QC, Canada) into the plantar surface of the right hind paw.
Following this, the rats were placed in clear plastic chambers (30 × 30 × 30 cm) positioned over a mirror angled at 45°, in order to allow an unobstructed view of the paws, and their behaviors were recorded for the next 60 min. […] Nocifensive behaviors were assessed using a weighed score as described previously [43, 44]. […] The weighted nociceptive score, ranging from 0 to 3, is calculated by multiplying the time spent in each category by its assigned weight category, summing these products and dividing by the total time for each 3 min block of time. The total area under the curve (A.U.C.) for the inflammatory phase (phase 2) was calculated between 21 to 60 min for each animal. Phase 2 was further subdivided in early (21–39 min) and late (40–60) phases and analyzed as separate events [45]. […] The cumulative time spent in both lifting (state 2) and flinching/licking/biting (state 3), reflecting behavioral reactions integrated at different CNS levels, were also determined during the inflammatory phase (21 to 60 min following formalin) [42].
Data are presented as means ± standard errors of the mean (S.E.M.). All calculations and statistical analysis were performed using Prism 4.0 and Instat 3.05 (Graph Pad Software, San Diego, CA, USA). Nociceptive scores over the 3 min time blocks were analyzed using a two-way analysis of variance for repeated measures, with comparisons between experimental groups and the control group at each time interval using Bonferroni's post hoc t-test. A one-way ANOVA followed by Dunnett's post hoc t-test was used to determine the significance of differences in the A.U.C. and in the time spent in states 2 and 3. A difference in responses between groups was considered significant with P values; * P < 0.05 and ** P < 0.01.

c-fos = assay: Formalin-evoked c-fos-like immunoreactivity in lumbar spinal cord (L4-L5); assay type: in vivo; conditions: rat
Experimental: At 45 min following formalin injection, rats were deeply anesthetized and perfused intraaortically with ice-cold 4% paraformaldehyde (Fisher Scientific, Montreal, QC, Canada) in 0.1 M PB, pH 7.4. The spinal cord was isolated and then cryoprotected overnight at 4°C in 30% sucrose in phosphate-buffered saline (PBS). Prior to tissue sectioning, an incision was made in the ventral horn of the contralateral side to allow spatial positioning of the spinal cord for further analysis. Transverse frozen sections (35-μm-thick) were then cut from the lumbar segment (L4-L5) of the spinal cord with a sliding microtome and processed by a free-floating slice immunohistochemistry procedure. After elimination of endogenous peroxidase activity with 0.3% hydrogen peroxide in PBS for 1 h, the tissue sections were rinsed three times in PBS and incubated for 1 h at RT in a blocking solution of 3% normal goat serum (NGS) and 0.3% Triton X-100 in PBS. After washing, free-floating sections were incubated overnight at RT with the rabbit anti-c-fos polyclonal antibody diluted 1:1000 in PBS (sc-52, Santa Cruz Biotechnology, Santa Cruz, CA, USA), containing 1% NGS and 0.3% Triton X-100. The tissue was then washed three times in PBS and transferred to a goat anti-rabbit biotinylated secondary IgG complex (1:200 in 1% NGS and 0.3% Triton X-100 in PBS; Vector, Burlingame, CA, USA) for 1 h at RT followed by exposing to avidin-biotin horseradish peroxydase complex (1:100; Vectastain ABC-Elite kit, Vector Laboratories, Burlington, ON, Canada) for 1 h at RT. After the final wash with PBS, the chromagen was developed using nickel intensified 3,3'-diaminobenzidine (DAB, 0.01%) and 0.3% H2O2. Finally, the sections were thoroughly rinsed with PBS, mounted onto slides, dehydrated in a series of graded alcohols, defatted in xylene, and placed on coverslips.
Sections were visually scanned and photographed using a bright-field microscope (Leica DM4000B; Leica Microsystems, Toronto, Canada). The individual sections were printed and overlaid with an acetate sheet on which the distribution of c-fos immunoreactive neurons was then plotted. […] For the quantification of c-fos labeled neurons, each section of the spinal cord was divided into four regions of interest: the superficial laminae (laminae I, IIo and IIi), the nucleus proprius (laminae III and IV), the neck of the dorsal horn (laminae V and VI) and the deep lamina X according to the cytoarchitectonic organization of the spinal cord. The number of c-fos immunoreactive neurons in the four defined regions was determined by averaging the counts made in 10–15 sections and expressed as mean ± S.E.M. of these values for all the rats in that treatment group for statistical analysis of the different experimental conditions. […] A Dunnett's t-test was applied to assess differences between the drug and vehicle groups. A value of P < 0.05 was considered statistically significant.

rNTS1 = molecular target: T2, rNTS1 (Rattus norvegicus, UniProt P20789); assay: Competition binding of [3H]-NT to HEK293 cell membranes expressing rNTS1
T2 construct: expressed in transfected cells; membrane homogenates
T2 sequence (P20789 whole entry): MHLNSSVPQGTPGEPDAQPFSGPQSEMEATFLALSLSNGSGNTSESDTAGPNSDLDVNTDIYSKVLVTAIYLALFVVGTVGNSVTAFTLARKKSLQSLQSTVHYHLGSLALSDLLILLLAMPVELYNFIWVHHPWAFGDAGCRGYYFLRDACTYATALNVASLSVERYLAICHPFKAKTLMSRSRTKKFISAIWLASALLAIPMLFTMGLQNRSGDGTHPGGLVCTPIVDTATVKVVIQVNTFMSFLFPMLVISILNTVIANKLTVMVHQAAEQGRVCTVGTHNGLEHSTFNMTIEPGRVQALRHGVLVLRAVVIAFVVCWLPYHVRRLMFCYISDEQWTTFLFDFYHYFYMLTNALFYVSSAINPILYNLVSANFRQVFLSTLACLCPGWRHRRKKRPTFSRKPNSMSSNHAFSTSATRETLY
Experimental: as §1, §2

[3] = i.t. 5 μg/kg, 45 min after formalin

| IC50 (rNTS2; inhibition of 2 nM [3H]-NT binding, HEK293 cell membranes expressing rat NTS2, read-out: IC50 rNTS2) | IC50 (rNTS1; read-out: IC50 rNTS1) [nM] | Compound | effect on formalin-evoked licking/shaking/biting behaviors, phase 2 ([1]; i.t., all doses tested) | inhibition of cumulative time spent in lifting, phase 2 (21-60 min) ([1]; i.t., maximum reached over the doses tested (JMV-431 5-60 μg/kg, levocabastine 0.5-5 μg/kg)) [%] | decrease in A.U.C. in early phase 2 (21-39 min) [2] | decrease in A.U.C. in late phase 2 (40-60 min) [2] | reduction of pain behaviors in the tonic phase (phase 2, 21-60 min, A.U.C.) vs vehicle [2] [%] | reduction of contralateral c-fos immunoreactivity, lamina X (c-fos; [3]) [%] | reduction of contralateral c-fos immunoreactivity, laminae I-II (c-fos; [3]) [%] | reduction of contralateral c-fos immunoreactivity, laminae III-IV (c-fos; [3]) [%] | reduction of contralateral c-fos immunoreactivity, laminae V-VI (c-fos; [3]) [%] | reduction of number of c-fos-LI neurons, ipsilateral laminae I-II (c-fos; [3]) [%] | reduction of number of c-fos-LI neurons, ipsilateral laminae III-IV (c-fos; [3]) [%] | reduction of number of c-fos-LI neurons, ipsilateral laminae V-VI (c-fos; [3]) [%] | reduction of number of c-fos-LI neurons, ipsilateral laminae X (c-fos; [3]) [%] | reduction of lifting time during the tonic phase ([1]; i.t. NT69L 5 μg/kg) [%] | attenuation of flinching, licking and biting responses (maximum antagonism) ([1]; i.t. NT69L 5 μg/kg, tonic phase) [%] | IC50 (rNTS2; IC50 rNTS2) [nM] | effect on spinal nociceptive neuronal responses (c-fos) induced by formalin (c-fos; data not shown) | IC50 (rNTS1) [nM] |
| --- | --- | --- | --- | --- | --- | --- | --- | --- | --- | --- | --- | --- | --- | --- | --- | --- | --- | --- | --- | --- |
| 3 nM and 2.7 nM | > 10000 | C[C@@H]1CN([C@H]2CC[C@](C#N)(c3ccc(F)cc3)CC2)CC[C@]1(C(=O)O)c1ccccc1 [Levocabastine, levocabastine] | do not reverse | 73 ± 5 | no effect | 48 ± 16% | 29 ± 5 | 98 ± 1 | 74 ± 7 | 72 ± 7 | 77 ± 5 | 26 ± 7 | 60 ± 5 | 53 ± 3 | 56 ± 8 | – | – | – | – | – |
| – | – | CN[C@@H](CCCNC(=N)N)C(=O)N[C@@H](CCCCN)C(=O)N1CCC[C@H]1C(=O)N[C@@H](Cc1cccc2[nH]ccc12)C(=O)N[C@H](C(=O)N[C@@H](CC(C)C)C(=O)O)C(C)(C)C [NT69L, N-methyl-Arg-Lys-Pro-L-neo-Trp-tert-Leu-Leu-OH] (H-[NMeR]KP[Ala(indol-4-yl)][Tle]L-OH; N-terminus assumed) | – | – | 70 ± 13% | 48% ± 19 | 59 ± 13 | – | – | – | – | – | – | – | – | 74 ± 13 | 70 ± 15 | 3.7 ± 0.4 | attenuated | 2.2 ± 0.5 |
| – | – | CC[C@H](C)[C@H](NC[C@H](Cc1ccc(O)cc1)NC(=O)[C@@H]1CCCN1C(=O)[C@H](CCCNC(=N)N)NC(=O)[C@H](CCCNC(=N)N)NC(=O)OC(C)(C)C)C(=O)N[C@@H](CC(C)C)C(=O)O [JMV-431, Boc-Arg-ArgPro-Tyrø(CH2NH)-Ile-Leu-OH] | – | – | – | – | – | – | – | – | – | – | – | – | – | – | – | 19 ± 3.2 | – | 4740 ± 135 |
